Assay [1] deals with interleukin-8 (IL-8) secretion. Nature of the assay: IL-8 secretion induced by PMA in keratinocytes (ELISA). In kind it is cell-based, human. The protocol: (§1) Normal human keratinocytes were preincubated for 24 hours with Schisandra peptides at concentrations of 0.005% and 0.05% or with 10^-7 M dexamethasone (anti-inflammatory reference molecule).
(§2) Inflammation was then induced by treatment with 10 μg/ml PMA for 24 hours, always in the presence of Schisandra peptides or dexamethasone.
(§3) At the end of incubation, the quantities of interleukin-1β (IL-1β), interleukin-8 (IL-8) and interleukin-6 (IL-6) present in the culture supernatants were measured by ELISA.
(§4) In parallel, the number of biologically active cells is determined by a neutral red test. The quantity of cytokine assayed for each condition is reduced to the number of living cells by dividing by the OD540 value obtained at the end of the neutral red test.
(In general: In an ELISA, binding on a coated surface is turned into a signal by an enzyme label.)

For assay [2], the system named is interleukin-1β (IL-1β) secretion. Put plainly: IL-1β secretion induced by PMA in keratinocytes (ELISA). In kind it is cell-based, human. The protocol:
as §1, §2, §3, §4

Assay [3] has as its system VEGF secretion. Put plainly: VEGF protein release induced by PMA in keratinocytes (ELISA). The assay is classed as cell-based, human. The protocol: Normal human keratinocytes were preincubated for 24 hours with Schisandra peptides at concentrations of 0.005%, 0.05% and 0.1% or with 10^-7 M dexamethasone (anti-inflammatory reference molecule).
as §2
At the end of incubation, the quantity of VEGF present in the culture supernatants was measured by ELISA.
as §4
The significance of the results was verified by a single-factor analysis of variance followed by a Tukey's test (GraphPad Prism version 5.02 software, GraphPad Software, San Diego, Calif., USA).

Assay [4] has as its system interleukin-6 (IL-6) secretion. Nature of the assay: IL-6 secretion induced by PMA in keratinocytes (ELISA). In kind it is cell-based, human. The conditions noted are these: for IL-6: keratinocytes. The protocol: as §1, §2, §3, §4
The subject of assay [5] is cathelicidin (LL37) gene expression. Nature of the assay: LL37 gene expression induced by calcitriol in keratinocytes (real-time RT-PCR). The assay is classed as cell-based, human. The settings on record: NHEK, 24 hours. As to the method: (§5) In order to evaluate the potential activity of Schisandra peptides in the inflammatory phase of rosacea, we studied the effect of this complex of active agents on kallikrein 5 (KLK5) and cathelicidin (LL37) gene expression induced by a vitamin D analogue (calcitriol) in keratinocytes.
(§6) Normal human epidermal keratinocytes (NHEK) were cultivated in culture medium supplemented with Ca++ in order to bring them to a state of differentiation.
(§7) The keratinocytes were treated for 24 hours with 0.05% (w/v) Schisandra peptides in the presence or absence of 10^-7 M calcitriol (vitamin D analogue).
(§8) At the end of the treatment, the culture supernatants were eliminated and total RNA extracted using an extraction kit (RNeasy Mini Kit, Qiagen). Total RNA were then assayed in chips using the Experion™ system and the Experion RNA StdSens kit (Bio-Rad) and then reverse-transcribed into cDNA using the iScript cDNA Synthesis kit (Bio-Rad).
(§9) The neo-synthesized cDNA relating to the genes of interest (KLK5 and LL37) or to the reference genes were amplified selectively by real-time PCR on an iQ5 system (Bio-Rad) using SybrGreen technology (iQ SybrGreen kit, Bio-Rad).
(§10) The real-time RT-PCR method enables the relative quantification of the expression level of a gene of interest in relation to that of a reference gene in response to a given treatment.
(§11) The quantitative analysis of the results is based on the collection of threshold cycles.
(§12) The threshold cycle is […] correlated with the initial number of copies of target DNA.
(§13) ΔCt is thus calculated as follows: ΔCt=Cttarget gene−Ctreference gene
(§14) In a second step, the variation, as a function of the treatment and the number of copies of the gene of interest, was determined. ΔΔCt is thus calculated as follows: ΔΔCt=ΔCtcontrol−ΔCttreated
(§15) Lastly, relative quantity (RQ) is calculated: RQ=(1+E)ΔΔCt.
(§16) E (efficiency) is considered equal to 1, and thus: RQ=2ΔΔCt
(§17) The significance of the results was verified for the ΔCt values by a single-factor analysis of variance followed by a Tukey's test (GraphPad Prism version 5.02 software, GraphPad Software, San Diego, Calif., USA).
For orientation: In qPCR the cycle at which signal appears reflects the starting amount.

The test system of assay [6] is kallikrein 5 (KLK5) gene expression. Nature of the assay: KLK5 gene expression induced by calcitriol in keratinocytes (real-time RT-PCR). In kind it is cell-based, human. The conditions noted are these: NHEK, 24 hours. The protocol:
as §5, §6, §7, §8, §9, §10, §11, §12, §13, §14, §15, §16, §17

The subject of assay [7] is Normal human dermal microvascular endothelial cells. Nature of the assay: Endothelial cell proliferation in the absence or presence of VEGF (intracellular phosphatase activity). In kind it is cell-based. The conditions noted are these: 10 ng/ml VEGF. The protocol:
Normal human dermal microvascular endothelial cells were incubated for 24 or 48 hours in the absence (control) or presence of Schisandra peptides at concentrations of 0.05% and 0.1% and in the presence and absence of 10 ng/ml vascular endothelial growth factor (VEGF), the reference activator.
At the end of incubation, cell viability was evaluated by a spectrophotometric assay of intracellular phosphatase activity.
Statistical significance was evaluated by a single-factor analysis of variance followed by a Holm-Sidak test.

Assay [8] deals with endothelin production. Nature of the assay: Endothelin production by dermal microvascular endothelial cells (ELISA). The assay is classed as cell-based, human. The conditions noted are these: 6 hours, 16.7 nM insulin. The protocol:
Endothelin is a neuropeptide with powerful vasoconstrictive activity. It is secreted by endothelial and epithelial cells (keratinocytes), fibroblasts, adipocytes and macrophages. The effect of Schisandra peptides on endothelin production by endothelial cells was studied.
Normal adult human dermal microvascular endothelial cells cultivated in a monolayer were incubated for 6 hours in the absence (control) or the presence of 0.05% and 0.1% Schisandra peptides or 16.7 nM insulin (reference activator).
At the end of the incubation period, secreted endothelin was quantified by ELISA. In parallel, the proteins contained in the cellular lysates were quantified by the Bradford method.
The quantity of endothelin assayed was thus normalized with the quantity of total proteins, and the results were then expressed as the ratio of endothelin (ng) to total protein (μg) in the layer of cells.
The statistical significance of the results was evaluated by a single-factor analysis of variance followed by a Holm-Sidak test.

[9] abbreviates: 10 μg/ml PMA 24 hours alone (stimulated control).
[10] abbreviates: 10^-7 M calcitriol alone (stimulated control).
Where [11] appears, read: 10^-7 M calcitriol alone (stimulated control), control cells = 1.
Setting [12] is: 10−7 M dexamethasone 24 h preincubation + PMA 24 h.

Marks after values point to notes of the source that are not given here.

The results in this text go back to patent US8586107B2, “Schisandra sphenanthera fruit extract and cosmetic, dermatological, and nutraceutical compositions comprising same” (Laboratoires Expanscience, priority 2009, dated 2013).

In assay [1] (setting [9]), `CCCCCCCCCCCCCC(=O)O[C@@H]1[C@@H](C)[C@@]2(O)[C@@H](C=C(CO)C[C@]3(O)C(=O)C(C)=C[C@@H]23)[C@@H]2C(C)(C)[C@]12OC(C)=O` [PMA] gave an IL-8 of 2.056 ± 0.166 pg/ml/ODneutral red. The IL-1β in assay [2] (setting [9]) stood at 0.106 ± 0.008 ODELISA-ODneutral red. For the same molecule, the VEGF in assay [3] (setting [9]) was determined as 3333.861 ± 111.766 pg/ml/ODneutral red. In addition, the IL-6 in assay [4] (setting [9]) is 0.098 ± 0.002 ODELISA/ODneutral red.

Regarding `C=C1/C(=C\C=C2/CCC[C@]3(C)[C@@H]([C@H](C)CCCC(C)(C)O)CC[C@@H]23)C[C@@H](O)C[C@@H]1O` [calcitriol], the “Stimulation of LL37 gene expression vs. control cells” value in assay [5] (10^-7 M calcitriol) is on record as “+795%”. Also, in assay [5] (setting [10]), the “Mean ΔCt (CtLL37 − CtGAPDH)” value worked out at 11.01 and the “ΔΔCt (LL37)” value came out at 3.16. Besides, the “LL37 expression (RQ)” value in assay [5] (setting [11]) is recorded as 8.95$$$. In assay [6] (10^-7 M calcitriol), the “Stimulation of kallikrein 5 gene expression vs. control cells” value was “+149%”. In assay [6] (setting [10]), the “Mean ΔCt (CtKLK5 − CtGAPDH)” value was 2.46 and the “ΔΔCt (KLK5)” value was 1.32. Further, in assay [6] (setting [11]), the “KLK5 expression (RQ)” value was 2.49$$.

Turning to `C[C@@H]1C[C@H]2[C@@H]3CCC4=CC(=O)C=C[C@]4(C)[C@@]3(F)[C@@H](O)C[C@]2(C)[C@@]1(O)C(=O)CO` [dexamethasone], in assay [1] (setting [12]), the IL-8 was found to be 0.973 ± 0.213 pg/ml/ODneutral red. For the same molecule, the IL-1β in assay [2] (setting [12]) came to 0.037 ± 0.011 ODELISA-ODneutral red. Moreover, in assay [3] (10^−7 M dexamethasone 24 h preincubation + PMA 24 h), the VEGF was determined as 1789.338 ± 489.677 pg/ml/ODneutral red. Besides, the “IL-6 release, change vs. stimulated control (PMA)” value in assay [4] (10−7 M dexamethasone) is −56%***. Also, in assay [4] (setting [12]), the IL-6 is 0.043 ± 0.012 ODELISA/ODneutral red.

On to VEGF, for which the “Endothelial cell growth, stimulation in relation to control cells” value in assay [7] (24 hours) was “+41.4%”; in assay [7] (48 hours), “+96.3%”.

With “insulin: reference activator of endothelin production”, the “Endothelin production, change vs. control cells” value in assay [8] is on record as “+30%”. Moreover, the Endothelin in assay [8] (endothelial cells) is given as 1.72 ± 0.23 ng/μg of proteins.
